Laboratory results from US20260199500A1, “Camptothecin Derivative, Conjugate Thereof, Preparation Method Therefor and Medical Use Thereof” (priority 2023, published 2026).

What was measured:
[1] = tested on: MDA-MB-468 breast cancer cells; experiment: Inhibitory activity of compounds on MDA-MB-468 breast cancer cells (CellTiter-Glo); type: cell-based; conditions: for IC50 on 468 cells, ratio to DXD: IC50 of PY-X (DXD) set to 1, values are ratios of measured IC50 to DXD
Procedure: (§1) On the day of the experiment, the cells were digested with 0.25% trypsin (Gibco, 25200-072), filtered through a 40 μm sieve, diluted with the corresponding medium to a cell density of 1×10^4 cells/mL, and inoculated into a 96-well white cell culture plate (Beyotime, FCP968), with 100 μL of cells added per well. The culture plate was placed in a 37° C. incubator (Thermo 311) containing 5% C02 and incubated for 24 hours. On the second day, the samples to be tested were prepared as a stock solution at a final concentration of 1M in DMSO (Sigma, D1650), then diluted with the corresponding medium to a final concentration of 200 nM, and subjected to four-fold serial dilutions, resulting in a total of 9 concentrations. 100 μL of the diluted sample was added to each well of the 96-well plate. The plate was placed in a 37° C. incubator containing 5% CO2 and incubated for 144 hours. The cell culture plate was then removed, and 100 μL of the cell viability assay reagent (CellTiter-Glo® Luminescent Cell Viability Assay, Promega, G7571) was added to each well. The reaction was carried out in the dark at room temperature for 5 minutes. Luminescence values were read using a microplate reader (TECAN SPARK), and data were processed using Graphpad Prism 7 software.
(§2) PY—Y is referenced in the document (WO2022170971A1); and PY-A is referenced in the document (WO2021148501A1).

[2] = tested on: N87 gastric cancer cells; experiment: Inhibitory activity of compounds on N87 gastric cancer cells (CellTiter-Glo, 144 h); type: cell-based; conditions: for IC50 on N87 cells, ratio to DXD: IC50 of PY-X (DXD) set to 1, values are ratios of measured IC50 to DXD, 144 h
Procedure: as §1, §2

[3] = Log D of small molecules (1-octanol / phosphate buffer pH 2.5 and pH 7.4, LC-MS/MS); type: physicochemical
Procedure: (1) Preparation of 100 mM phosphate buffer (PB) solution at pH 2.5 and pH 7.4 respectively: • a. Preparation of a solution of 100 mM H3PO4 in water: 14.7 M H3PO4 was diluted with water to a concentration of 100 mM H3PO4, and the pH was measured to be approximately 1.8. • b. Preparation of 100 mM NaH2PO4: 5.999 g of NaH2PO4 was dissolved in 500 mL of water and the pH was measured to be approximately 4.5. • c. Preparation of 100 mM Na2HPO4: 7.098 g of Na2HPO4 was dissolved in water to a volume of 500 mL and the pH was measured to be approximately 9.4. • d. Preparation of 100 mM PB (pH 2.5): 15 mL of 100 mM H3PO4 was added to a 50 mL tube, and then pH was adjusted to 2.5±0.05 with 100 mM NaH2PO4. • d. Preparation of 100 mM PB (pH 7.4): 15 mL of 100 mM Na2HPO4 was added to a 50 mL tube, and then pH was adjusted to 7.4±0.05 with 100 mM NaH2PO4.
(2) Saturation of PBs (pH 2.5 and pH 7.4) with 1-octanol: 10 mL of 1-octanol was added to 100 mL of 100 mM PBs (pH 2.5 and pH 7.4), and the mixture was shaken vigorously, and then allowed to stand overnight at room temperature for later use.
(3) Saturation of 1-octanol with PBs (pH 2.5 and pH 7.4): 10 mL of 100 mM PBs (pH 2.5 and pH 7.4) was added to 100 mL of 1-octanol, and the mixture was shaken vigorously, and then allowed to stand overnight at room temperature for later use.
2.1) 2 μL of 10 mM DMSO stock solution of the test compound were dispensed into test tubes, in duplicate.
2.2) 149 μL of PB saturated with 1-octanol (pH 2.5 and 7.4) were added to the tubes.
2.3) 149 μL of PB (pH 2.5 and 7.4) saturated with 1-octanol were added to the corresponding tubes.
2.4) Each tube was vigorously mixed for 2 minutes, then shaken at 800 rpm for 1 hour at room temperature.
2.5) The tubes were centrifuged at 4000 rpm for 5 minutes at room temperature.
2.6) Appropriate volumes of the buffer phase and 1-octanol phase samples were aliquoted.
2.7) These samples were diluted and analyzed using LC-MS/MS without running a calibration curve.
2.8) Data analysis: The log D value of each compound was calculated using the following formula: f

[4] = samples retested together, ratio of measured IC50 to DXD

Row | SMILES | IC50 on 468 cells, ratio to DXD (retest) [1, 4] | IC50 on N87 cells, ratio to DXD (retest) [2, 4] | logD ([3]; pH 2.5) | logD ([3]; pH 7.4) | IC50 on 468 cells, ratio to DXD [1] | IC50 on N87 cells, ratio to DXD [2]
1 | CC[C@@]1(O)C(=O)OCc2c1cc1n(c2=O)Cc2c-1nc1cc(F)c(C)c3c1c2[C@@H](NC(=O)OCCCO)CC3 [PY-4Car3C, 3-hydroxypropyl((1S,9S)-9-ethyl-5-fluoro-9-hydroxy-4-methyl-10,13-dioxo-2,3,9,10,13,15-hexahydro-1H,12H-benzo[d]pyrano[3′,4′:6,7]indolizino[1,2-b]quinolin-1-yl)carbamate] | 0.5740 | 0.3593 | 2.2 | 2.29 |  | 
2 | CC[C@@]1(O)C(=O)OCc2c1cc1n(c2=O)Cc2c-1nc1cc(F)c(OC)c3c1c2CCC3 [PY-11, (S)-9-ethyl-5-fluoro-9-hydroxy-4-methoxy-1,2,3,9,12,15-hexahydro-10H,13H-benzo[de]pyrano[3′,4:6,7]indolizino[1,2-b]quinolin-10,13-dione] |  |  |  |  | 0.9642 | 0.0606
3 | CC[C@@]1(O)C(=O)OCc2c1cc1n(c2=O)Cc2c-1nc1cc(F)c(OC)c3c1c2[C@@H](N)CC3 [PY-12A, (1S,9S)-1-amino-9-ethyl-5-fluoro-9-hydroxy-4-methoxy-1,2,3,9,12,15-hexahydro-10H,13H-benzo[de]pyrano[3′,4:6,7]indolizino[1,2-b]quinolin-10,13-dione] |  |  |  |  | 3.3035 | 1.6441
4 | CC[C@@]1(O)C(=O)OCc2c1cc1n(c2=O)Cc2c-1nc1cc(F)c(OC)c3c1c2[C@H](N)CC3 [PY-12B, (1R,9S)-1-amino-9-ethyl-5-fluoro-9-hydroxy-4-methoxy-1,2,3,9,12,15-hexahydro-10H,13H-benzo[de]pyrano[3′,4:6,7]indolizino[1,2-b]quinolin-10,13-dione] |  |  |  |  | 8.4257 | 5.3044
5 | CC[C@@]1(O)C(=O)OCc2c1cc1n(c2=O)Cc2c-1nc1cc(F)c(OCCN)c3c1c2CCC3 [PY-17, (S)-4-(2-aminoethoxy)-9-ethyl-5-fluoro-9-hydroxy-1,2,3,9,12,15-hexahydro-10H,13H-benzo[d]pyrano[3′,4′:6,7]indolizino[1,2-b]quinolin-10,13-dione] |  |  |  |  | 8.0396 | 3.7859
6 | CC[C@@]1(O)C(=O)OCc2c1cc1n(c2=O)Cc2c-1nc1cc(F)c(CCN)c3c1c2CCC3 [PY-20] |  |  |  |  | 1.2806 | 1.0070
7 | CC[C@@]1(O)C(=O)OCc2c1cc1n(c2=O)Cc2c-1nc1cc(F)c(CCCCN)c3c1c2CCC3 [PY-24] |  |  |  |  | 2.2057 | 1.5288
